Common to all, as to type: biochemical
The target in experiment [1] is T1, α-Glucosidase (AGS) (Saccharomyces cerevisiae, UniProt P53341). As to the kind of experiment: AGS (α-glucosidase) inhibitory assay. The procedure:
(§1) The AGS [23, 24, 25, 26] and BGUS [27] inhibitory activities were evaluated by the methods reported in the literature, respectively.

Experiment [2] concerns the target T1, α-Glucosidase (AGS). The experiment is described as follows: Inhibition kinetics against AGS (Lineweaver–Burk plots). Particulars: for Ki: AGS, secondary plot of slope versus [I], read-out: Ki (inhibition constant of the enzyme); for mode of inhibition against AGS: Lineweaver–Burk plots. The procedure:
(§2) The mode of inhibition for the active compounds was determined by the Lineweaver–Burk plot fitted by GraphPad Prism 8.0 software. The Km value and the Vmax value were obtained from the slope and Y-axis intercept of the Lineweaver–Burk plot based on the following equation:(1) Vmax=1/Y−intercept (2) Km=slope× Vmax
(§3) The Ki and Ki’ values were available by secondary plotting of the slope and Y-intercept on the Lineweaver–Burk plot versus the inhibitor [I] through the following equations:(3) Slope=Km/Vmax+Km[I]/VmaxKi (4) Y−intercept=1/Vmax+[I]/VmaxKi′

The target of experiment [3] is T2, bacterial β-glucuronidase (BGUS) (Escherichia coli, UniProt P05804). The experiment is described as follows: BGUS (β-glucuronidase) inhibitory assay. Particulars: in vitro; for IC50: means ± SD. The procedure:
as §1

The target of experiment [4] is T2, bacterial β-glucuronidase (BGUS). As to the kind of experiment: Inhibition kinetics against BGUS (Lineweaver–Burk plots). As for the experimental part: as §2, §3
[5] abbreviates: in vitro, means ± SD, read-out: IC50 α-Glucosidase.

The record followed here is article PMC8954508, “α-Glucosidase and Bacterial β-Glucuronidase Inhibitors from the Stems of Schisandra sphaerandra Staph” (Pharmaceuticals, 2022).

Molecules are shown by their SMILES. Where two headings read alike, the source gives them in different places.

For orientation: IC50 means the concentration that inhibits the measured activity by half. A word on the Ki: it is the equilibrium dissociation constant of an inhibitor or competing ligand from its target.

T2 sequence (P05804 whole entry): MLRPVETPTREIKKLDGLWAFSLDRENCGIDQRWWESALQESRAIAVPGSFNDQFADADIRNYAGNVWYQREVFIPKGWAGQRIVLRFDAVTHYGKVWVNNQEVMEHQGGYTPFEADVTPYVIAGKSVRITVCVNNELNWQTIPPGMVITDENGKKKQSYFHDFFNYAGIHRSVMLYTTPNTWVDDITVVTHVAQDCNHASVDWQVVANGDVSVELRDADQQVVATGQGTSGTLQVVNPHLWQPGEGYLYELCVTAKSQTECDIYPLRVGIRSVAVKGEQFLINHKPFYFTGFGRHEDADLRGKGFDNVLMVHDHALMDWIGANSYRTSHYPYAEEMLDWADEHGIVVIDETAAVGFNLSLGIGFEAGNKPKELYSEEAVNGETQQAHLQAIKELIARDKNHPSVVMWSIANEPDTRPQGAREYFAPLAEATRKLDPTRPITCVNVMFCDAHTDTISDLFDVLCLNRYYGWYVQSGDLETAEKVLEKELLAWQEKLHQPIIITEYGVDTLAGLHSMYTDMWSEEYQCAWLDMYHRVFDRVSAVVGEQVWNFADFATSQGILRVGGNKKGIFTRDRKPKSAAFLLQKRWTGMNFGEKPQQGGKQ
T1 sequence (P53341 whole entry): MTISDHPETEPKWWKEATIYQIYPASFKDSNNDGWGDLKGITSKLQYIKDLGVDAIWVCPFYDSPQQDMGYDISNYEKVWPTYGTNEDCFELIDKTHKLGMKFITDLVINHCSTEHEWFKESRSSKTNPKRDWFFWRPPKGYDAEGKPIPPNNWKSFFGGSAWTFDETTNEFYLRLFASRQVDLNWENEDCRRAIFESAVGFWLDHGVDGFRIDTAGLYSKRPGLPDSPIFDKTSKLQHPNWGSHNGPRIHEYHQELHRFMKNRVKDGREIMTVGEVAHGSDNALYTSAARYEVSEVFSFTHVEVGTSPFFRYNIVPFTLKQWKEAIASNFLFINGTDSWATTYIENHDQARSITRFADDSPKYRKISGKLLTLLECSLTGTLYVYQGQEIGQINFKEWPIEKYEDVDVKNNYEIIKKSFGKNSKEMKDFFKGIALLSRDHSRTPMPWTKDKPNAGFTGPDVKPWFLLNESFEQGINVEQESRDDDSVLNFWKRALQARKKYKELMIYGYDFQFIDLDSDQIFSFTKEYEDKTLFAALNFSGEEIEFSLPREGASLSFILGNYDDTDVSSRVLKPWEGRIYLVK

For the compound `CC(=O)OC1CC2=C(CCC3C(=C2)C=CC(=O)OC3(C)C)C2(C)CCC(C(C)C3CC=C(C)C(=O)O3)C12C` (stereo not shown) [Compound 1, Sphaerandralide A], it took 61.5 ± 1.75 µM to reach half-maximal inhibition against α-Glucosidase (AGS) [1] (IC50). Besides, on α-Glucosidase (AGS) [2], the Ki came out at 35.8 µM and the “mode of inhibition against AGS” value is “mixed-type inhibitors”.

In the case of `CC1=CCC(C(C)C2CCC3(C)C4CCC5C(C)(C)OC(=O)C=CC56CC46CCC23C)OC1=O` (stereo not shown) [Compound 3, schisanlactone B], on α-Glucosidase (AGS) [1] (setting [5]), the IC50 worked out at 29.5 ± 0.7 µM. The IC50 in experiment [3] is 14.7 ± 0.1 µM. Moreover, at α-Glucosidase (AGS) [2], the inhibition constant (Ki) came out at 10.5 µM and the “mode of inhibition against AGS” value is recorded as “mixed-type inhibitors”. Also, the “mode of inhibition against BGUS” value in experiment [4] is on record as “mixed-type inhibitor”.

In the case of `C=C(C)[C@@H]1CC[C@@H]2[C@]3(CC[C@]4(C)[C@@H]([C@H](C)CC/C=C(/C)C(=O)O)CC[C@@]24C)C[C@]13CCC(=O)OC` [Compound 4, 3,4-seco-(24Z)-cycloart-4(28),24-diene-3,26-dioic-3-methyl ester], the IC50 on α-Glucosidase (AGS) [1] (setting [5]) was 14.1 ± 0.29 µM. Besides, in experiment [3], the “BGUS inhibitory activity (in words)” value is reported as “weak activity” and it took 155 ± 4.68 µM to reach half-maximal inhibition (IC50). Besides, at α-Glucosidase (AGS) [2], the Ki was 7.97 µM and the “mode of inhibition against AGS” value is recorded as “competitive inhibitors”.

For `C=C(C)[C@@H]1CC[C@@H]2[C@]3(CC[C@]4(C)C(=O)CC[C@@]24C)C[C@]13CCC(=O)OC` [Compound 5, schiglausin L], the IC50 on α-Glucosidase (AGS) [1] (setting [5]) worked out at 42.9 ± 1.04 µM. The “mode of inhibition against AGS” value on α-Glucosidase (AGS) [2] is on record as “could not be well defined”.

For `O=C(O)[C@@H](O)[C@H]1OC(=O)[C@H](O)[C@H]1O` [DSL, D-Saccharic 1,4-lactone, reference compound], the IC50 in experiment [3] was 56.9 ± 1.57 µM.
